# Source: ChEMBL document CHEMBL3112450, “Synthesis and in vitro antitumor evaluation of primary amine substituted quinazoline linked benzimidazole” (Bioorg Med Chem Lett, 2014)
# Key:
# [1] = Cytotoxicity against human UACC257 cells assessed as cell growth at 10^-8 M after 48 hrs by SRB assay; format: functional; settings: UACC-257, 48 h, read-out: Activity
# OVCAR-3 [2] = assay: Cytotoxicity against human OVCAR3 cells assessed as cell growth at 10^-4 M after 48 hrs by SRB assay; format: functional; settings: OVCAR-3, 48 h, read-out: Activity
# A549 [3] = assay: Cytotoxicity against human A549 cells after 48 hrs by SRB assay; format: functional; settings: A549, 48 h
# A549 [4] = assay: Cytotoxicity against human A549 cells assessed as cell growth at 10^-8 M after 48 hrs by SRB assay; format: functional; settings: A549, 48 h, read-out: Activity
# [5] = Cytotoxicity against human EKVX cells assessed as growth inhibition at 10 uM after 48 hrs by SRB assay; format: functional; settings: read-out: GI
# [6] = Cytotoxicity against human UACC257 cells assessed as cell growth at 10^-7 M after 48 hrs by SRB assay; format: functional; settings: UACC-257, 48 h, read-out: Activity
# [7] = Cytotoxicity against human UACC257 cells after 48 hrs by SRB assay; format: functional; settings: UACC-257, 48 h
# [8] = Cytotoxicity against human NCI-ADR-RES cells assessed as growth inhibition at 10 uM after 48 hrs by SRB assay; format: functional; settings: read-out: GI
# BT-549 = assay: Cytotoxicity against human BT549 cells assessed as growth inhibition at 10 uM after 48 hrs by SRB assay; format: functional; settings: BT-549, 48 h, read-out: GI
# A549 [9] = assay: Cytotoxicity against human A549 cells assessed as cell growth at 10^-7 M after 48 hrs by SRB assay; format: functional; settings: A549, 48 h, read-out: Activity
# A549 [10] = assay: Cytotoxicity against human A549 cells assessed as cell growth at 10^-4 M after 48 hrs by SRB assay; format: functional; settings: A549, 48 h, read-out: Activity
# SNB-19 = assay: Cytotoxicity against human SNB19 cells assessed as growth inhibition at 10 uM after 48 hrs by SRB assay; format: functional; settings: SNB-19, 48 h, read-out: GI
# NCI-H23 = assay: Cytotoxicity against human NCI-H23 cells assessed as growth inhibition at 10 uM after 48 hrs by SRB assay; format: functional; settings: NCI-H23, 48 h, read-out: GI
# [11] = Cytotoxicity against human UACC257 cells assessed as cell growth at 10^-6 M after 48 hrs by SRB assay; format: functional; settings: UACC-257, 48 h, read-out: Activity
# [12] = Cytotoxicity against human UACC257 cells assessed as cell growth at 10^-4 M after 48 hrs by SRB assay; format: functional; settings: UACC-257, 48 h, read-out: Activity
# SNB-75 [13] = assay: Cytotoxicity against human SNB75 cells assessed as cell growth at 10^-4 M after 48 hrs by SRB assay; format: functional; settings: SNB-75, 48 h, read-out: Activity
# SNB-75 [14] = assay: Cytotoxicity against human SNB75 cells assessed as cell growth at 10^-8 M after 48 hrs by SRB assay; format: functional; settings: SNB-75, 48 h, read-out: Activity
# SNB-75 [15] = assay: Cytotoxicity against human SNB75 cells after 48 hrs by SRB assay; format: functional, cell-based; settings: SNB-75, 48 h
# SNB-75 [16] = assay: Cytotoxicity against human SNB75 cells assessed as cell growth at 10^-6 M after 48 hrs by SRB assay; format: functional; settings: SNB-75, 48 h, read-out: Activity
# SNB-75 [17] = assay: Cytotoxicity against human SNB75 cells assessed as cell growth at 10^-7 M after 48 hrs by SRB assay; format: functional; settings: SNB-75, 48 h, read-out: Activity
# COLO 205 = assay: Cytotoxicity against human COLO205 cells assessed as growth inhibition at 10 uM after 48 hrs by SRB assay; format: functional; settings: COLO 205, 48 h, read-out: GI
# [18] = Cytotoxicity against human UO31 cells assessed as growth inhibition at 10 uM after 48 hrs by SRB assay; format: functional; settings: UO-31, 48 h, read-out: GI
# CCRF-CEM = assay: Cytotoxicity against human CCRF-CEM cells assessed as growth inhibition at 10 uM after 48 hrs by SRB assay; format: functional; settings: read-out: GI
# MDA-MB-468 = assay: Cytotoxicity against human MDA-MB-468 cells assessed as growth inhibition at 10 uM after 48 hrs by SRB assay; format: functional; settings: MDA-MB-468, 48 h, read-out: GI
# SNB-75 [19] = assay: Cytotoxicity against human SNB75 cells assessed as growth inhibition at 10 uM after 48 hrs by SRB assay; format: functional; settings: SNB-75, 48 h, read-out: GI
# OVCAR-3 [20] = assay: Cytotoxicity against human OVCAR3 cells assessed as growth inhibition at 10 uM after 48 hrs by SRB assay; format: functional; settings: OVCAR-3, 48 h, read-out: GI
# HT-29 = assay: Cytotoxicity against human HT-29 cells assessed as growth inhibition at 10 uM after 48 hrs by SRB assay; format: functional; settings: HT-29, 48 h, read-out: GI
# HCT-116 = assay: Cytotoxicity against human HCT116 cells assessed as growth inhibition at 10 uM after 48 hrs by SRB assay; format: functional; settings: HCT-116, 48 h, read-out: GI
# A549 [21] = assay: Cytotoxicity against human A549 cells assessed as growth inhibition at 10 uM after 48 hrs by SRB assay; format: functional; settings: A549, 48 h, read-out: GI
# LOX IMVI = assay: Cytotoxicity against human LOXIMVI cells assessed as growth inhibition at 10 uM after 48 hrs by SRB assay; format: functional; settings: read-out: GI
# [22] = Cytotoxicity against human OVCAR4 cells assessed as growth inhibition at 10 uM after 48 hrs by SRB assay; format: functional; settings: OVCAR-4, 48 h, read-out: GI
# MCF7 = assay: Cytotoxicity against human MCF7 cells assessed as growth inhibition at 10 uM after 48 hrs by SRB assay; format: functional; settings: MCF7, 48 h, read-out: GI
# SK-MEL-5 = assay: Cytotoxicity against human SK-MEL-5 cells assessed as growth inhibition at 10 uM after 48 hrs by SRB assay; format: functional; settings: SK-MEL-5, 48 h, read-out: GI
# K562 = assay: Cytotoxicity against human K562 cells assessed as growth inhibition at 10 uM after 48 hrs by SRB assay; format: functional; settings: K562, 48 h, read-out: GI
# DU-145 = assay: Cytotoxicity against human DU145 cells assessed as growth inhibition at 10 uM after 48 hrs by SRB assay; format: functional; settings: DU-145, 48 h, read-out: GI
# KM12 = assay: Cytotoxicity against human KM12 cells assessed as growth inhibition at 10 uM after 48 hrs by SRB assay; format: functional; settings: KM12, 48 h, read-out: GI
# SF-295 = assay: Cytotoxicity against human SF295 cells assessed as growth inhibition at 10 uM after 48 hrs by SRB assay; format: functional; settings: SF-295, 48 h, read-out: GI
# MDA-MB-231 = assay: Cytotoxicity against human MDA-MB-231 cells assessed as growth inhibition at 10 uM after 48 hrs by SRB assay; format: functional; settings: MDA-MB-231, 48 h, read-out: GI
# MDA-MB-435 = assay: Cytotoxicity against human MDA-MB-435 cells assessed as growth inhibition at 10 uM after 48 hrs by SRB assay; format: functional; settings: MDA-MB-435, 48 h, read-out: GI
# MOLT-4 = assay: Cytotoxicity against human MOLT4 cells assessed as growth inhibition at 10 uM after 48 hrs by SRB assay; format: functional; settings: MOLT-4, 48 h, read-out: GI
structure (smiles),measurement,setting,value
C=CCn1c(C)nc2ccc(Nc3nc(Nc4ccc5nc(C)n(CC=C)c5c4)c4ccccc4n3)cc21,growth at 0.01 µM,[1],90%
same,growth at 100 µM,OVCAR-3 [2],-48%
same,GI50,A549 [3],1720 nM
same,TGI,A549 [3],3.22 µM
same,growth at 0.01 µM,A549 [4],99%
same,inhibition of growth at 10 µM,[5],90%
same,growth at 0.1 µM,[6],92%
same,GI50,[7],1.57 µM
same,TGI,[7],3.03 µM
same,inhibition of growth at 10 µM,[8],40%
same,inhibition of growth at 10 µM,BT-549,30%
same,growth at 0.1 µM,A549 [9],101%
same,growth at 100 µM,A549 [10],-14%
same,inhibition of growth at 10 µM,SNB-19,50%
same,inhibition of growth at 10 µM,NCI-H23,50%
same,growth at 1 µM,[11],84%
same,growth at 100 µM,[12],-49%
C=CCn1c(C)nc2cc(Nc3nc(Nc4ccc5nc(C)n(CC=C)c5c4)c4ccccc4n3)ccc21,growth at 100 µM,SNB-75 [13],-61%
same,growth at 0.01 µM,SNB-75 [14],84%
same,GI50,SNB-75 [15],375 nM
same,LC50 (concentration killing 50% of cells),SNB-75 [15],5.31 µM
same,TGI,SNB-75 [15],1560 nM
same,growth at 1 µM,SNB-75 [16],18%
same,growth at 0.1 µM,SNB-75 [17],93%
C=CCn1c(C)nc2ccc(Nc3nc(Nc4ccc(F)cc4)nc4ccccc34)cc21,growth at 0.01 µM,[1],98%
same,growth at 100 µM,SNB-75 [13],-57%
same,inhibition of growth at 10 µM,COLO 205,50%
same,inhibition of growth at 10 µM,[18],50%
same,growth at 100 µM,OVCAR-3 [2],-90%
same,GI50,A549 [3],4180 nM
same,LC50,A549 [3],> 100 µM
same,TGI,A549 [3],22.2 µM
same,inhibition of growth at 10 µM,CCRF-CEM,70%
same,inhibition of growth at 10 µM,MDA-MB-468,50%
same,growth at 0.01 µM,A549 [4],94%
same,inhibition of growth at 10 µM,SNB-75 [19],40%
same,inhibition of growth at 10 µM,OVCAR-3 [20],40%
same,inhibition of growth at 10 µM,HT-29,70%
same,growth at 0.1 µM,[6],98%
same,GI50,[7],13.1 µM
same,LC50 (concentration killing 50% of cells),[7],68.3 µM
same,TGI,[7],29.9 µM
same,inhibition of growth at 10 µM,[8],50%
same,inhibition of growth at 10 µM,BT-549,40%
same,growth at 0.01 µM,SNB-75 [14],76%
same,inhibition of growth at 10 µM,HCT-116,70%
same,inhibition of growth at 10 µM,A549 [21],40%
same,inhibition of growth at 10 µM,LOX IMVI,50%
same,GI50,SNB-75 [15],1510 nM
same,IC50,SNB-75 [15],7.5 µM
same,TGI,SNB-75 [15],3370 nM
same,growth at 0.1 µM,A549 [9],97%
same,growth at 100 µM,A549 [10],-49%
same,inhibition of growth at 10 µM,[22],50%
same,inhibition of growth at 10 µM,MCF7,70%
same,inhibition of growth at 10 µM,NCI-H23,40%
same,inhibition of growth at 10 µM,SK-MEL-5,50%
same,growth at 1 µM,SNB-75 [16],76%
same,growth at 0.1 µM,SNB-75 [17],80%
same,growth at 1 µM,[11],92%
same,inhibition of growth at 10 µM,K562,70%
same,inhibition of growth at 10 µM,DU-145,30%
same,inhibition of growth at 10 µM,KM12,50%
same,inhibition of growth at 10 µM,SF-295,50%
same,inhibition of growth at 10 µM,MDA-MB-231,30%
same,inhibition of growth at 10 µM,MDA-MB-435,40%
same,growth at 100 µM,[12],-73%
C=CCn1c(C)nc2cc(Nc3nc(NCCO)nc4ccccc34)ccc21,inhibition of growth at 10 µM,COLO 205,50%
same,inhibition of growth at 10 µM,[18],30%
same,inhibition of growth at 10 µM,MOLT-4,40%
same,inhibition of growth at 10 µM,MDA-MB-468,40%
same,inhibition of growth at 10 µM,HT-29,30%
same,inhibition of growth at 10 µM,HCT-116,30%
same,inhibition of growth at 10 µM,[22],30%
same,inhibition of growth at 10 µM,MCF7,30%
same,inhibition of growth at 10 µM,SK-MEL-5,30%
same,inhibition of growth at 10 µM,K562,30%
same,inhibition of growth at 10 µM,KM12,30%
same,inhibition of growth at 10 µM,MDA-MB-231,30%
C=CCn1c(C)nc2ccc(Nc3nc(Sc4ccc(N)cc4)nc4ccccc34)cc21,inhibition of growth at 10 µM,CCRF-CEM,30%
